Data as given in patent publication US10617612B2, “Composition comprising decanal or as active ingredients for preventing hair loss or stimulating hair growth” (INDUSTRY-ACADEMIC COOPERATION FOUNDATION, YONSEI UNIVERSITY, priority 2016, dated 2020).

Columns and labels:
C57BL/6N mice = assay: Hair regrowth in mice with back hair removed, skin application (visual observation, hair length); format: in vivo; conditions: 3 mg/mouse/day on back skin once a day
Procedure: To visually confirm the state of hair growth, after the animals were lightly anesthetized with ether, the back was photographed, at the end of one week, two weeks, three weeks, and four weeks after application begins, Hair length was measured using a ruler to evaluate the degree of hair growth.

[1] = test system: hair follicles of back skin; assay: Histological analysis of back skin (Hematoxylin-Eosin, hair follicle number and diameter); format: in vivo; conditions: back skin after 4 weeks of application, 3 mg/mouse/day
Text: After 4 weeks of application, the animals were sacrificed and the back skin tissue sample was extracted with scissors and forceps around the area where the experimental material was applied, and fixed with formalin. After each step was dehydrated with alcohol and xylene, the back skin tissue sample was embedded with paraffin, and was cut into 5 μm slice using a microtome, and then paraffin was removed with alcohol and xylene. […] A pathology speculum specialist was examined to evaluate the hair growth cycle, and quantity of hair follicle and diameter were measured on an optical microscope.
The results of measurement of the hair follicle number in each experimental group under an optical microscope of magnification of 40 are illustrated in FIG. 3.

β-catenin [2] = assay: Western blot of back skin tissue; format: in vivo, mouse; conditions: 4 weeks application
Procedure: A predetermined amount of visceral fat or liver tissue was homogenized with liquid nitrogen and lysis buffer in a mortar, and then centrifuged at 13,000×g at 4° C. for 20 minutes. And the middle layer was taken and the protein was quantified by the Bradford method. 50 μg of protein was electrophoresed on SDS polyacrylamide gel, electro blotted onto PVDF hyper film, and reacted with β-catenin and β-actin antibody (Cell Signaling Technology, Danvers, Mass., USA), respectively. Signals of each protein were visualized using a chemiluminescent detection system (Amersham) and the band thickness was quantified using Quantity One Analysis Software (Bo-Rad Laboratories).
The Wnt/β-catenin Signal transduction pathway is known to be involved in promoting entry into the anagen by regulating hair follicle cycle. The expression level of β-catenin was analyzed by western blotting in the back skin tissues in order to determine whether the signal transduction pathway related to hair growth promotion was activated.

Axin = assay: RT-PCR gene expression in back skin tissue; format: in vivo, mouse; conditions: 4 weeks application
Procedure: (§1) To quantitatively analyze total RNA in skin tissue of experimental animal, 1 mL of Trizol solution was added to 50-100 mg of skin tissue and homogenized, followed by centrifugation at 12,000×g for 10 minutes at 4° C. After transferring the supernatant liquid to a new tube, 200 μl of chloroform was added and the mixture was vigorously shaken. This process above was repeated twice, then the supernatant liquid was transferred to a new tube and isoprophanol and the supernatant liquid were added at a ratio of 1:1. The mixture was shaken 10 times and then allowed to stand at room temperature for 10 minutes, and the supernatant liquid was removed after centrifugation at 12,000×g for 10 minutes at 4° C., and 1 ml of 70% ethanol was added to the remaining precipitate, and the precipitate was centrifuged at 7,500×g and 4° C. for 5 minutes. After removing the ethanol, the tube containing the RNA precipitate was dried at room temperature for 5 minutes, and the RNA pellet was dissolved using nuclease free water. The concentration of RNA extracted at 260 nm and 280 nm wavelengths was measured using a UV/VIS spectrophotometer (Beckman coulter, DU730), and agarose gel electrophoresis was performed to confirm the integrity of the RNA sample.
(§2) cDNA was synthesized by performing reverse transcription using oligo dT primer and superscript reverse transcriptase (GIBCOBRL, Gaithersburg, Md., USA) after RNA isolation. The cDNA obtained by reverse transcription was determined as a template, and PCR was performed using the 5′ and 3′ flanking sequence of the gene cDNA to be amplified as primers. In this case, primers required were synthesized by a manufacture specialized company of primers (Bionia Co., Ltd., Korea), and the primer sequences were illustrated in Table 1 below. 2 μl of the reacted cDNA reaction mixture and 2.5 units of Taq polymerase (Takara, Japan) were added to a mixture prepared by adding 5 μl of 10× reaction buffer [100 mM KCL, 20 mM Tris-HCL (pH 8.0), 2.5 mM MgCl2], 4 μl of 10 mM dNTP, and 1 μl each of 0.2 μM sense and antisense primer, and the volume was adjusted using 50 μl of distilled water, then PCR was performed using a PCR instrument. PCR conditions were set at 94° C. for 4 minutes, 94° C. for 30 seconds, 30 cycles [52° C. for 30 seconds, 72° C. for 45 seconds] and 72° C. for 10 minutes. Since 1 μl of the amplified product was electrophoresed on 1% agarose gel to check the DNA band, gene expression level was evaluated.
(§3) The expression change of Wnt/β-catenin signal transduction material which was known as hair growth promotion mechanism in the back skin tissue of the mice to which the experimental material was applied for 4 weeks, was analyzed by RT-PCR.

[3] = test system: FZD1 (frizzled receptor 1); assay: RT-PCR gene expression in back skin tissue; format: in vivo, mouse; conditions: 4 weeks application
Procedure: as §1, §2, §3

[4] = test system: GSK3β (glycogen synthase kinase 3β); assay: RT-PCR gene expression in back skin tissue; format: in vivo, mouse; conditions: 4 weeks application
Procedure: as §1, §2, §3

[5] = test system: LRP5 (low-density lipoprotein receptor-related protein 5); assay: RT-PCR gene expression in back skin tissue; format: in vivo, mouse; conditions: 4 weeks application
Procedure: as §1, §2, §3

Wnt10b = assay: RT-PCR gene expression in back skin tissue; format: in vivo, mouse; conditions: 4 weeks application
Procedure: as §1, §2, §3

β-catenin [6] = assay: RT-PCR gene expression in back skin tissue; format: in vivo, mouse; conditions: 4 weeks application
Procedure: as §1, §2, §3

[7] = test system: hepatocyte growth factor (HGF); assay: RT-PCR gene expression in back skin tissue; format: in vivo, mouse; conditions: 4 weeks application
Procedure: as §1
as §2, with “PCR conditions were set at 94° C. for 4 minutes, 94° C. for 30 seconds, 30 cycles [52° C. for 30 seconds, 72° C. for 45 seconds] and 72° C. for 10 minutes.” left out
(§4) In addition, to investigate hair growth promoting action mechanism of Decanal, the expression change of endocrine factors affecting hair growth was evaluated. The gene expression level of insulin-like growth factor 1 (IGF1), vascular endothelial growth factor (VEGF), hepatocyte growth factor (HGF), and keratinocyte growth factor (KGF), which were growth factors affecting hair growth promotion in back skin tissue, was evaluated. […]

[8] = test system: insulin-like growth factor 1 (IGF1); assay: RT-PCR gene expression in back skin tissue; format: in vivo, mouse; conditions: 4 weeks application
Procedure: as §1
as §2, with “PCR conditions were set at 94° C. for 4 minutes, 94° C. for 30 seconds, 30 cycles [52° C. for 30 seconds, 72° C. for 45 seconds] and 72° C. for 10 minutes.” left out
as §4

[9] = test system: keratinocyte growth factor (KGF); assay: RT-PCR gene expression in back skin tissue; format: in vivo, mouse; conditions: 4 weeks application
Procedure: as §1
as §2, with “PCR conditions were set at 94° C. for 4 minutes, 94° C. for 30 seconds, 30 cycles [52° C. for 30 seconds, 72° C. for 45 seconds] and 72° C. for 10 minutes.” left out
as §4

[10] = test system: vascular endothelial growth factor (VEGF); assay: RT-PCR gene expression in back skin tissue; format: in vivo, mouse; conditions: 4 weeks application
Procedure: as §1
as §2, with “PCR conditions were set at 94° C. for 4 minutes, 94° C. for 30 seconds, 30 cycles [52° C. for 30 seconds, 72° C. for 45 seconds] and 72° C. for 10 minutes.” left out
as §4

[11] = test system: embryos of sea urchins and copepods; conditions: reported physiological activity; cited from earlier work
[12] = test system: nematode parasitic on plant roots; conditions: reported; cited from earlier work
[13] = Measurement of body weight change; conditions: 3 mg/mouse/day applied to back skin once a day
Procedure: The animals were kept in a temperature of 21±2.0° C., relative humidity of 50±5%, and 12 hours of day and night cycles. During the experiment, the mice were fed with a regular solid feed (chow) with water freely.
To examine the effect of promoting hair growth, 8-week-old mouse of telogen hair showing pink color of dorsal skin was used. After removing the hair of the mouse backing using a clipper for a mouse, the sample was applied once a day at 4:00 PM for four weeks. Decanal (3 mg/mouse/day) which is experimental material and minoxidil (3 mg/mouse/day) used as a reference drug were dissolved in vehicle (ethanol:water:propylene glycol=5:3:2) and applied, and the vehicle only was applied to the negative control group.
The body weight of the experimental animals was measured weekly from immediately before application of the hair growth treatment to the end of application.

CCCCCCCCCC=O [DC, Decanal]
Increase of hair length compared to negative control after 4 weeks (C57BL/6N mice; 4 weeks, p<0.001): 438% | Visual state of hair growth after 4 weeks (C57BL/6N mice; 4 weeks, vs negative control): hair was grown evenly and heartily in the larger number of individuals compared to the negative control group | Hair length compared to negative control, from the 2nd week (C57BL/6N mice; measured weekly): significantly increased from the 2nd week | Onset of hair growth (visual observation) (C57BL/6N mice; negative control: no hair after 2 weeks): hair began to grow from the 2nd week after application | Histological appearance of hair follicles [1]: the hair follicle was lengthened and appeared outside the skin | Increase of hair follicle diameter compared to negative control ([1]; image analysis): 33% | Increase of number of hair follicles compared to negative control ([1]; magnification of 40): 193% | β-catenin protein expression effect compared to minoxidil group (β-catenin [2]): superior to the minoxidil group | Increase of β-catenin protein expression compared to negative control (β-catenin [2]; 3 mg/mouse/day): 79% | Axin gene expression compared to negative control (Axin): significantly decreased | FZD1 gene expression compared to negative control [3]: significantly increased | GSK3β gene expression compared to negative control [4]: significantly decreased | LRP5 gene expression compared to negative control [5]: significantly increased | Wnt10b gene expression compared to negative control (Wnt10b): significantly increased | β-catenin gene expression compared to negative control (β-catenin [6]): significantly increased | HGF gene expression compared to negative control [7]: significantly increased expression | IGF1 gene expression compared to negative control [8]: significantly increased expression | KGF gene expression compared to negative control [9]: significantly increased expression | VEGF gene expression compared to negative control [10]: significantly increased expression | Effect on embryos of sea urchins and copepods [11]: a reproductive failure was induced by inducing apoptosis | Nematicidal activity [12]: strong nematicidal activity | Body weight after 4 weeks of application, difference between experimental groups [13]: not significantly different

Nc1cc(N2CCCCC2)nc(N)[n+]1[O-] [MXD, minoxidil, reference compound]
Body weight after 4 weeks of application, difference between experimental groups [13]: not significantly different
